Results from patent publication US11639350B2, “Heteroaryldihydropyrimidine derivatives and methods of treating hepatitis B infections” (Janssen Pharmaceutica NV, priority 2018, dated 2023).

Tests used:
[1] = Cytotoxicity determination in HepG2.2.15 cells (CCK-8); format: cell-based; settings: human, 6 days of compound treatment, CCK-8, highest concentration 100 μM
In short: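 HepG2.2.15 cells seeded at 5,000 cells/well in 2% FBS medium, incubated overnight at 37° C., then treated 6 days with compounds (8 points, 3-fold dilutions, top 100 μM), medium refreshed once midway. CCK-8 added for 2.5 h; A450 read against 630 nm reference; CC50 calculated, averaged over repeats.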

HBV = HBV inhibitory activity: HBV DNA in the culture medium of HepG2.2.15 cells by q-PCR; format: cell-based; settings: Hepatitis B virus, HepG2.2.15, 144 h, HepG2.2.15 cells, 6 days of compound treatment, HBV DNA in culture medium by q-PCR, highest concentration 10 μM; read-out: EC50
In short: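 HepG2.2.15 cells in 2% FBS medium, 40,000 per well, treated 6 days with compound (medium refreshed once), eight 3-fold dilutions from 10 μM top. HBV DNA extracted from culture medium and quantified by q-PCR; EC50 averaged over repeats. Cytotoxicity run in parallel at 5,000 cells per well, top 100 μM, giving CC50.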

SMILES: CCOC(=O)C1=C(C2CCN(S(=O)(=O)C3CC(C(=O)O)C3)CC2)NC(c2nccs2)=NC1c1ccc(F)c(F)c1Br (stereo in doubt) [Compound 199B, (trans)-3-((4-(6-(2-bromo-3,4-difluorophenyl)-5-(ethoxycarbonyl)-2-(thiazol-2-yl)-3,6-dihydropyrimidin-4-yl)piperidin-1-yl)sulfonyl)cyclobutanecarboxylic Acid]
- CC50 at 6 days [1]: 14.2 µM
- EC50 (HBV): < 4.6 nM

SMILES: COC(=O)C1=C([C@H]2CC[C@H](N(CCO)C(C)=O)CC2)NC(c2nccs2)=NC1c1ccc(F)c(F)c1Cl (single isomer, unassigned) [Compound 433B, (trans)-Methyl 4-(2-chloro-3,4-difluorophenyl)-6-(4-(N-(2-hydroxyethyl)acetamido)cyclohexyl)-2-(thiazol-2-yl)-1,4-dihydropyrimidine-5-carboxylate]
- CC50 at 6 days [1]: 17.4 µM
- EC50 (HBV): 59 nM

SMILES: CCOC(=O)C1=C([C@H]2C[C@@H](NS(C)(=O)=O)C2(C)C)NC(c2nccs2)=NC1c1ccc(F)cc1Cl (single isomer, unassigned) [Compound 437A, (cis)-Ethyl 4-(2-chloro-4-fluorophenyl)-6-(2,2-dimethyl-3-(methylsulfonamido)cyclobutyl)-2-(thiazol-2-yl)-1,4-dihydropyrimidine-5-carboxylate]
- CC50 at 6 days [1]: 10.4 µM
- EC50 (HBV): 600 nM

SMILES: CCOC(=O)C1=C(C2CCN(S(=O)(=O)[C@H]3C[C@H](C(=O)O)C3)CC2)NC(c2nccs2)=NC1c1cccc(F)c1Br (relative stereo) [Compound 339B, (trans)-3-((4-(6-(2-Bromo-3-fluorophenyl)-5-(ethoxycarbonyl)-2-(thiazol-2-yl)-3,6-dihydropyrimidin-4-yl)piperidin-1-yl)sulfonyl)cyclobutanecarboxylic Acid]
- CC50 at 6 days [1]: 13.4 µM
- EC50 (HBV): 10 nM

SMILES: CCOC(=O)C1=C([C@H]2CC[C@H](C(=O)OC)CC2)NC(c2nccs2)=NC1c1cccc(F)c1Cl (relative stereo) [Compound 22Y, Ethyl 4-(2-chloro-3-fluorophenyl)-6-(trans-4-(methoxycarbonyl)-cyclohexyl)-2-(thiazol-2-yl)-1,4-dihydropyrimidine-5-carboxylate]
- CC50 at 6 days [1]: 75.9 µM
- EC50 (HBV): 224 nM

SMILES: COC(=O)C1=C(C2CCN(S(=O)(=O)C3COC3)C2)NC(c2nccs2)=NC1c1ccc(F)cc1Cl (centres unmarked) [Compound 255, Methyl 4-(2-chloro-4-fluorophenyl)-6-(−1-(oxetan-3-ylsulfonyl)pyrrolidin-3-yl)-2-(thiazol-2-yl)-1,4-dihydropyrimidine-5-carboxylate]
- CC50 at 6 days [1]: 24.1 µM
- EC50 (HBV): 49 nM

SMILES: COC(=O)C1=C(C2COC2)NC(c2nccs2)=NC1c1ccc(F)cc1Cl (racemic) [Compound 217, Methyl 4-(2-chloro-4-fluorophenyl)-6-(oxetan-3-yl)-2-(thiazol-2-yl)-1,4-dihydropyrimidine-5-carboxylate]
- CC50 at 6 days [1]: 29.6 µM
- EC50 (HBV): 511 nM

SMILES: CCOC(=O)C1=C(C2CCN(S(=O)(=O)[C@H]3CC[C@@H](C(=O)O)CC3)CC2)NC(c2nccs2)=NC1c1ccc(F)c(F)c1Cl (relative stereo) [Compound 354B, (cis)-4-((4-(6-(2-Chloro-3,4-difluorophenyl)-5-(ethoxycarbonyl)-2-(thiazol-2-yl)-3,6-dihydropyrimidin-4-yl)piperidin-1-yl)sulfonyl)cyclohexane-carboxylic Acid]
- CC50 at 6 days [1]: 7 µM
- EC50 (HBV): 18 nM

SMILES: COC(=O)C1=C(C2CCN(C)C2)NC(c2nccs2)=NC1c1ccc(F)cc1Cl (single isomer, unassigned) [Compound 207C, methyl 4-(2-chloro-4-fluorophenyl)-6-(−1-methylpyrrolidin-3-yl)-2-(thiazol-2-yl)-1,4-dihydropyrimidine-5-carboxylate]
- CC50 at 6 days [1]: > 20 µM
- EC50 (HBV): 753 nM

SMILES: COC(=O)C1=C(C2CCN(S(=O)(=O)[C@@H]3CC[C@H](C(=O)O)C3)CC2)NC(c2nccs2)=NC1c1ccc(F)cc1Cl (relative stereo) [Compound 311B, (cis)-3-((4-(6-(2-Chloro-4-fluorophenyl)-5-(methoxycarbonyl)-2-(thiazol-2-yl)-3,6-dihydropyrimidin-4-yl)piperidin-1-yl)sulfonyl)-cyclopentanecarboxylic Acid]
- CC50 at 6 days [1]: > 100 µM
- EC50 (HBV): 97 nM

SMILES: COC(=O)C1=C(C2CCN(S(=O)(=O)c3cn[nH]c3)CC2)NC(c2nccs2)=NC1c1ccc(F)c(F)c1Cl (centres unmarked) [Compound 324, methyl 6-(1-((1H-pyrazol-4-yl)sulfonyl)piperidin-4-yl)-4-(2-chloro-3,4-difluorophenyl)-2-(thiazol-2-yl)-1,4-dihydropyrimidine-5-carboxylate]
- CC50 at 6 days [1]: 9.8 µM
- EC50 (HBV): 5 nM

SMILES: COC(=O)C1=C(C2CCN(S(=O)(=O)[C@H]3C[C@H](C(=O)O)C3)CC2)NC(c2nccs2)=NC1c1ccc(F)cc1Br (stereo partly drawn) [Compound 241B, (trans)-3-((4-(−6-(2-Bromo-4-fluorophenyl)-5-(methoxycarbonyl)-2-(thiazol-2-yl)-3,6-dihydropyrimidin-4-yl)piperidin-1-yl)sulfonyl)cyclobutanecarboxylic Acid]
- CC50 at 6 days [1]: 60 µM
- EC50 (HBV): 120 nM

SMILES: COC(=O)C1=C(C2CCN(S(=O)(=O)c3cccc(C(=O)O)c3)CC2)NC(c2nccs2)=NC1c1cccc(F)c1Cl (centres unmarked) [Compound 118, 3-((4-(6-(2-Chloro-3-fluorophenyl)-5-(methoxycarbonyl)-2-(thiazol-2-yl)-3,6-dihydropyrimidin-4-yl)piperidin-1-yl)sulfonyl)benzoic Acid]
- CC50 at 6 days [1]: 59.1 µM
- EC50 (HBV): 15 nM

SMILES: COCCOCCS(=O)(=O)N1CCC(C2=C(C(=O)OC)C(c3ccc(F)cc3Cl)N=C(c3nccs3)N2)CC1 (centres unmarked) [Compound 464, Methyl 4-(2-chloro-4-fluorophenyl)-6-(1-((2-(2methoxyethoxy)ethyl)sulfonyl)piperidin-4-yl)-2-(thiazol-2-yl)-1,4-dihydropyrimidine-5-carboxylate]
- CC50 at 6 days [1]: 29.4 µM
- EC50 (HBV): < 4.6 nM

SMILES: COC(=O)C1=C(C2CCN(S(C)(=N)=O)CC2)NC(c2nccs2)=NC1c1ccc(F)cc1Cl (centres unmarked) [Compound 401B, Methyl 4-(2-chloro-4-fluorophenyl)-6-(1-(S-methylsulfonimidoyl)piperidin-4-yl)-2-(thiazol-2-yl)-1,4-dihydropyrimidine-5-carboxylate]
- CC50 at 6 days [1]: 56.2 µM
- EC50 (HBV): 29 nM

SMILES: COCCNS(=O)(=O)[C@H]1CC[C@H](C2=C(C(=O)OC)C(c3ccc(F)c(F)c3Cl)N=C(c3nccs3)N2)CC1 (single isomer, unassigned) [Compound 359D, (trans)-methyl 4-(2-chloro-3,4-difluorophenyl)-6-(4-(N-(2-methoxyethyl)sulfamoyl)cyclohexyl)-2-(thiazol-2-yl)-1,4-dihydropyrimidine-5-carboxylate]
- CC50 at 6 days [1]: 12 µM
- EC50 (HBV): 5 nM

SMILES: COC(=O)C1=C([C@H]2CC[C@H](C(=O)OC)CC2)NC(c2ncc(F)cc2F)=NC1c1ccc(F)cc1Cl (single isomer, unassigned) [Compound 174A, Methyl 4-(2-chloro-4-fluorophenyl)-2-(3,5-difluoropyridin-2-yl)-6-((trans)-4-(methoxycarbonyl)cyclohexyl)-1,4-dihydropyrimidine-5-carboxylate]
- CC50 at 6 days [1]: 19.4 µM
- EC50 (HBV): 128 nM

SMILES: COC(=O)C1=C(C2CCCN2S(C)(=O)=O)NC(c2nccs2)=NC1c1ccc(F)cc1Cl (single isomer, unassigned) [Compound 69C, Methyl 4-(2-chloro-4-fluorophenyl)-6-(1-(methylsulfonyl)-pyrrolidin-2-yl)-2-(thiazol-2-yl)-1,4-dihydropyrimidine-5-carboxylate]
- CC50 at 6 days [1]: 11.9 µM
- EC50 (HBV): 448 nM

SMILES: COC(=O)C1=C(C2CCN(S(=O)(=O)[C@H]3C[C@@H](C(=O)O)C3)CC2)NC(c2nccs2)=NC1c1ccc(F)c(F)c1Cl (relative stereo) [Compound 232D, (cis)-3-((4-(−6-(2-Chloro-3,4-difluorophenyl)-5-(methoxycarbonyl)-2-(thiazol-2-yl)-3,6-dihydropyrimidin-4-yl)piperidin-1-yl)sulfonyl)cyclobutanecarboxylic Acid]
- CC50 at 6 days [1]: 39.6 µM
- EC50 (HBV): 30 nM

SMILES: COC(=O)C1=C(C2CCN(S(=O)(=O)N3CCOCC3)CC2)NC(c2nccs2)=NC1c1ccc(F)cc1Cl (centres unmarked) [Compound 164, Methyl 4-(2-chloro-4-fluorophenyl)-6-(1-(morpholinosulfonyl)piperidin-4-yl)-2-(thiazol-2-yl)-1,4-dihydropyrimidine-5-carboxylate]
- CC50 at 6 days [1]: 57.4 µM
- EC50 (HBV): 58 nM

SMILES: COC(=O)C1=C(C2CCN(S(=O)(=O)C[C@H]3CC[C@H](C(=O)O)CC3)CC2)NC(c2nccs2)=NC1c1ccc(F)c(F)c1Cl (stereo partly drawn) [Compound 425, trans-4-(((4-(6-(2-chloro-3,4-difluorophenyl)-5-(methoxycarbonyl)-2-(thiazol-2-yl)-3,6-dihydropyrimidin-4-yl)piperidinyl)sulfonyl)methyl)cyclohexane-1-carboxylic Acid]
- CC50 at 6 days [1]: 13.3 µM
- EC50 (HBV): 6 nM

SMILES: COC(=O)C1=C(C2CCN(S(=O)(=O)c3cnn(CCCCC(=O)O)c3)CC2)NC(c2nccs2)=NC1c1ccc(F)cc1Cl (centres unmarked) [Compound 471, 5-(4-((4-(6-(2-Chloro-4-fluorophenyl)-5-(methoxycarbonyl)-2-(thiazol-2-yl)-3,6-dihydropyrimidin-4-yl)piperidin-1-yl)sulfonyl)-1H-pyrazol-1-yl)pentanoic Acid]
- CC50 at 6 days [1]: 32.3 µM
- EC50 (HBV): 53 nM
